Reference: patent publication US20090253667A1, “18 ,21-Didesoxymacbecin Derivatives for the Treatment of Cancer” (priority 2006, published 2009)

How the values were obtained:
[1] = test system: MEXF 394NL; assay: Monolayer proliferation assay (modified propidium iodide assay); type: cell-based, human; conditions: 4 days continuous exposure
Experimental: (§1) In vitro evaluation of compounds for anticancer activity in a panel of human tumour cell lines in a monolayer proliferation assay were carried out at the Oncotest Testing Facility, Institute for Experimental Oncology, Oncotest GmbH, Freiburg.
(§2) The Oncotest cell lines were established from human tumor xenografts as described by Roth et al., (1999). The origin of the donor xenografts was described by Fiebig et al., (1999). Other cell lines were either obtained from the NCI (DU145, MCF-7) or purchased from DSMZ, Braunschweig, Germany.
(§3) All cell lines, unless otherwise specified, were grown at 37° C. in a humidified atmosphere (95% air, 5% CO2) in a ‘ready-mix’ medium containing RPMI 1640 medium, 10% fetal calf serum, and 0.1 mg/mL gentamicin (PAA, Cölbe, Germany).
(§4) A modified propidium iodide assay was used to assess the effects of the test compound(s) on the growth of human tumour cell lines (Dengler et al., (1995)).
(§5) Briefly, cells were harvested from exponential phase cultures by trypsinization, counted and plated in 96 well flat-bottomed microtitre plates at a cell density dependent on the cell line (5-10.000 viable cells/well). After 24 h recovery to allow the cells to resume exponential growth, 0.010 mL of culture medium (6 control wells per plate) or culture medium containing the 18,21-didesoxymacbecin analogue was added to the wells. Each concentration was plated in triplicate. Compounds were applied in five concentrations (100; 10; 1; 0.1 and 0.01 μg/ml). Following 4 days of continuous exposure, cell culture medium with or without test compound was replaced by 0.2 mL of an aqueous propidium iodide (PI) solution (7 mg/L). To measure the proportion of living cells, cells may be permeabilized by freezing the plates. After thawing the plates, fluorescence was measured using the Cytofluor 4000 microplate reader (excitation 530 nm, emission 620 nm), giving a direct relationship to the total number of viable cells. Growth inhibition may be expressed as treated/control×100 (% T/C). This can be plotted as a graph of % T/C against concentration of test compound applied, which can then be used to calculate the concentration necessary to inhibit cell growth by 70% (IC70).
(§6) In vitro evaluation of the test compounds for anticancer activity in a panel of human tumour cell lines in a monolayer proliferation assay was carried out as described in the general methods using a modified propidium iodide assay.

[2] = test system: DU145; assay: as above; type: cell-based, human; conditions: 4 days continuous exposure
Experimental: as §1, §2, §3, §4, §5, §6

[3] = test system: MCF-7; assay: as above; type: cell-based, human; conditions: 4 days continuous exposure
Experimental: as §1, §2, §3, §4, §5, §6

[4] = test system: CXF HT29; assay: as above; type: cell-based, human; conditions: 4 days continuous exposure
Experimental: as §1, §2, §3, §4, §5, §6

[5] = test system: LXF 1121L; assay: as above; type: cell-based, human; conditions: 4 days continuous exposure
Experimental: as §1, §2, §3, §4, §5, §6

[6] = test system: CNXF 498NL; assay: as above; type: cell-based, human; conditions: 4 days continuous exposure
Experimental: as §1, §2, §3, §4, §5, §6

[7] = test system: panel of human tumour cell lines; assay: Monolayer proliferation assay, mean IC70 across the cell line panel; type: cell-based; conditions: geometric mean of all replicates across the six cell lines
Experimental: as §1, §2, §3, §4, §5, §6

[8] = biological target: Yeast Hsp90 (Saccharomyces cerevisiae, UniProt P02829); assay: Isothermal titration calorimetry, Kd for Hsp90 binding; conditions: ITC at 30° C., 0.008 mM yeast Hsp90, 2% DMSO
Experimental: Yeast Hsp90 was dialysed against 20 mM Tris pH 7.5 containing 1 mM EDTA and 5 mM NaCl and then diluted to 0.008 mM in the same buffer, but containing 2% DMSO. The test compounds were dissolved in 100% DMSO at a concentration of 50 mM and subsequently diluted to 0.1 mM in the same buffer as for Hsp90 with 2% DMSO. Heats of interaction were measured at 30° C. on a MSC system (Microcal), with a cell volume of 1.458 mL. 10 aliquots of 0.027 mL of 0.100 mM of each test compound were injected into 0.008 mM yeast Hsp90. Heats of dilution were determined in a separate experiment by injecting the test compound into buffer containing 2% DMSO, and the corrected data fitted using a nonlinear least square curve-fitting algorithm (Microcal Origin) with three floating variables: stoichiometry, binding constant and change in enthalpy of interaction.

[9] = biological target: Hsp90 (Homo sapiens, UniProt P07900); conditions: cited from earlier work

Chain of Yeast Hsp90 (P02829 whole entry): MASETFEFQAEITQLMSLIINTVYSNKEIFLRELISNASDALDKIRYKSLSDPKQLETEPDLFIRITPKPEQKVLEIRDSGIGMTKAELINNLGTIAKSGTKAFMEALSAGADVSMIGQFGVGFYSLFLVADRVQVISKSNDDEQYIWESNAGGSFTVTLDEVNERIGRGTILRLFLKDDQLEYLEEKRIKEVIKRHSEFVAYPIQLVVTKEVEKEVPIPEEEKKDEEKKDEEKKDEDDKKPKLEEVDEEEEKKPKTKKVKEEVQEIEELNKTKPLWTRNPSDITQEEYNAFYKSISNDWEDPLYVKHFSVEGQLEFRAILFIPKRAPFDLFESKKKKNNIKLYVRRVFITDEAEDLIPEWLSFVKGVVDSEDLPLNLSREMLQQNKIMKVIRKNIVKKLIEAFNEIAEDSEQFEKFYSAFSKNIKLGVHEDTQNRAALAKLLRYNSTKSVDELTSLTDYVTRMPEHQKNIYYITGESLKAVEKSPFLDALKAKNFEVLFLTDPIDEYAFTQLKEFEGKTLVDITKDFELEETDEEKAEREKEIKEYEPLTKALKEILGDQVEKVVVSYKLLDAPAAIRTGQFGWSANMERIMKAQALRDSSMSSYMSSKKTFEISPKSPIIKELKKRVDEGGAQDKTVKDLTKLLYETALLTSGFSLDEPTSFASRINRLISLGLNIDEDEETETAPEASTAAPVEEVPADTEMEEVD

Row | SMILES | Test/Control (%) at drug concentration ([1]; 0.01 μg/mL) [%] | Test/Control (%) at drug concentration ([1]; 0.1 μg/mL) [%] | Test/Control (%) at drug concentration ([1]; 1 μg/mL) [%] | Test/Control (%) at drug concentration ([1]; 10 μg/mL) [%] | Test/Control (%) at drug concentration ([1]; 100 μg/mL) [%] | Test/Control (%) at drug concentration ([2]; DU145, 0.01 μg/mL) [%] | Test/Control (%) at drug concentration ([2]; DU145, 0.1 μg/mL) [%] | Test/Control (%) at drug concentration ([2]; DU145, 1 μg/mL) [%] | Test/Control (%) at drug concentration ([2]; DU145, 10 μg/mL) [%] | Test/Control (%) at drug concentration ([2]; DU145, 100 μg/mL) [%] | Test/Control (%) at drug concentration ([3]; MCF-7, 0.01 μg/mL) [%] | Test/Control (%) at drug concentration ([3]; MCF-7, 0.1 μg/mL) [%] | Test/Control (%) at drug concentration ([3]; MCF-7, 1 μg/mL) [%] | Test/Control (%) at drug concentration ([3]; MCF-7, 10 μg/mL) [%] | Test/Control (%) at drug concentration ([3]; MCF-7, 100 μg/mL) [%] | Test/Control (%) at drug concentration ([4]; CXF HT29, 0.01 μg/mL) [%] | Test/Control (%) at drug concentration ([4]; CXF HT29, 0.1 μg/mL) [%] | Test/Control (%) at drug concentration ([4]; CXF HT29, 1 μg/mL) [%] | Test/Control (%) at drug concentration ([4]; CXF HT29, 10 μg/mL) [%] | average IC70 value across the cell-line panel [7] [µg/mL] | also measured
1 | CO[C@H]1C[C@H](C)Cc2cccc(c2)NC(=O)/C(C)=C/CC[C@H](C)[C@@H](OC(N)=O)/C(C)=C/[C@H](C)[C@H]1O [Compound 16, 4,5-dihydro-11-O-desmethyl-15-desmethoxy-18,21-didesoxymacbecin] | 100 | 64 | 7 | 5 | 3 | 96 | 47 | 8 | 8 | 8 | 83 | 21 | 10 | 11 | 10 | 106 | 52 | 8 | 7 | 0.193 | Test/Control (%) at drug concentration ([4]; CXF HT29, 100 μg/mL): 6%; Test/Control (%) at drug concentration ([5]; 0.01 μg/mL): 106%; Test/Control (%) at drug concentration ([5]; 0.1 μg/mL): 48%; Test/Control (%) at drug concentration ([5]; 1 μg/mL): 10%; Test/Control (%) at drug concentration ([5]; 10 μg/mL): 7%; Test/Control (%) at drug concentration ([5]; 100 μg/mL): 5%; Test/Control (%) at drug concentration ([6]; 0.01 μg/mL): 100%; Test/Control (%) at drug concentration ([6]; 0.1 μg/mL): 19%; Test/Control (%) at drug concentration ([6]; 1 μg/mL): 8%; Test/Control (%) at drug concentration ([6]; 10 μg/mL): 8%; Test/Control (%) at drug concentration ([6]; 100 μg/mL): 6%; Kd [8]: 20 nM
2 | CO[C@H]1C[C@H](C)Cc2cc(ccc2F)NC(=O)/C(C)=C/CC[C@H](C)[C@@H](OC(N)=O)/C(C)=C/[C@H](C)[C@H]1O [Compound 17, 4,5-dihydro-11-O-desmethyl-15-desmethoxy-17-fluoro-18,21-didesoxymacbecin] | 101 | 21 | 4 | 3 | 3 | 93 | 7 | 8 | 10 | 9 | 86 | 20 | 10 | 10 | 8 | 102 | 49 | 7 | 7 | 0.106 | Test/Control (%) at drug concentration ([4]; CXF HT29, 100 μg/mL): 8%; Test/Control (%) at drug concentration ([5]; 0.01 μg/mL): 100%; Test/Control (%) at drug concentration ([5]; 0.1 μg/mL): 41%; Test/Control (%) at drug concentration ([5]; 1 μg/mL): 10%; Test/Control (%) at drug concentration ([5]; 10 μg/mL): 11%; Test/Control (%) at drug concentration ([5]; 100 μg/mL): 11%; Test/Control (%) at drug concentration ([6]; 0.01 μg/mL): 97%; Test/Control (%) at drug concentration ([6]; 0.1 μg/mL): 22%; Test/Control (%) at drug concentration ([6]; 1 μg/mL): 7%; Test/Control (%) at drug concentration ([6]; 10 μg/mL): 8%; Test/Control (%) at drug concentration ([6]; 100 μg/mL): 7%; Kd [8]: 19 nM
3 | CO[C@H]1C[C@H](C)Cc2cc(F)cc(c2)NC(=O)/C(C)=C/CC[C@H](C)[C@@H](OC(N)=O)/C(C)=C/[C@H](C)[C@H]1O [Compound 18, 4,5-dihydro-11-O-desmethyl-15-desmethoxy-18-fluoro-18,21-didesoxymacbecin] | 91 | 24 | 7 | 5 | 4 | 66 | 9 | 8 | 9 | 6 | 77 | 27 | 12 | 12 | 8 | 98 | 14 | 11 | 13 | 0.077 | Test/Control (%) at drug concentration ([4]; CXF HT29, 100 μg/mL): 11%; Test/Control (%) at drug concentration ([5]; 0.01 μg/mL): 94%; Test/Control (%) at drug concentration ([5]; 0.1 μg/mL): 43%; Test/Control (%) at drug concentration ([5]; 1 μg/mL): 13%; Test/Control (%) at drug concentration ([5]; 10 μg/mL): 13%; Test/Control (%) at drug concentration ([5]; 100 μg/mL): 12%; Test/Control (%) at drug concentration ([6]; 0.01 μg/mL): 64%; Test/Control (%) at drug concentration ([6]; 0.1 μg/mL): 9%; Test/Control (%) at drug concentration ([6]; 1 μg/mL): 9%; Test/Control (%) at drug concentration ([6]; 10 μg/mL): 11%; Test/Control (%) at drug concentration ([6]; 100 μg/mL): 9%; Kd [8]: 23.5 nM
4 | CO[C@H]1C[C@H](C)Cc2cc(O)cc(c2)NC(=O)/C=C/CC[C@H](OC)[C@@H](OC(N)=O)/C(C)=C/[C@H](C)[C@H]1O [KOSN1559] |  |  |  |  |  |  |  |  |  |  |  |  |  |  |  |  |  |  |  |  | binding affinity to Hsp90 relative to 17-AAG ([9]; greater binding affinity than 17-AAG): 8 fold; binding affinity to Hsp90 relative to geldanamycin ([9]; greater binding affinity than geldanamycin): 4 fold
5 | CO[C@H]1[C@@H](OC)C[C@H](C)[C@@H](OC)C2=CC(=O)C=C(NC(=O)/C(C)=C/C=C\[C@H](C)[C@@H](OC(N)=O)/C(C)=C/[C@@H]1C)C2=O [macbecin] |  |  |  |  |  |  |  |  |  |  |  |  |  |  |  |  |  |  |  | 0.21 | 
